Patent US20150320823A1, “NOVEL USE OF RICE, RICE BRAN OR RICE HULL EXTRACT AS AN HISTAMINE RECEPTOR ANTAGONIST” (KOREA FOOD RESEARCH INSTITUTE, priority 2011, published 2015)

System: GABAA-benzodiazepine receptor
Experiment: Sleep-improving mechanism: pentobarbital sleep test with GABAA-benzodiazepine antagonist flumazenil (FLU)
Format: in vivo
Settings: mouse; FLU 8 mg/kg i.p. 10 min before sample p.o. (DZP 0.5 mg/kg; BEE 500 mg/kg); pentobarbital 45 mg/kg 45 min later

CN1C(=O)CN=C(c2ccccc2)c2cc(Cl)ccc21 [DZP, diazepam]
effect of flumazenil (FLU) on the sleep-improving effect (sleep latency, sleep duration): had an effect
